Columns and labels:
[1] = tested on: HMOX1 expression in HT-1080 fibrosarcoma cells; assay: HMOX1 induction by RT-qPCR in HT-1080 cells; type: cell-based; settings: for HMOX1 induction (RT-qPCR): 10 μM or 5 μM, four hours, normalized to ACTB, relative to DMSO
Procedure: We tested several of our ferroptosis-inducing compounds for their ability to rapidly induce HMOX1 by RT-qPCR. Briefly, HT-1080 fibrosarcoma cells were treated with either 10 µM or 5 µM of compound RSL3, 8216, 1962, 1816, or 3362 for four hours. RNA was isolated and reverse transcribed and HMOX1 expression quantified by qPCR. Each sample was normalized to an ACTB housekeeping gene control and fold change was calculated relative to a DMSO control.
We tested several of the ferroptosis-inducing compounds for their ability to rapidly induce expression of HMOX1. Briefly, HT-1080 fibrosarcoma cells were plated in 6-well dishes 24 hours prior to treatment with 5 μM of 8147, 6047, 3793, Rsl3, 6666 or 8216 with and without the addition of ferrostatin-1 to the media. Cells were harvested from the plate after 4 hours of compound treatment by adding Trizol reagent directly to the plate to lyse the cells and preserve the RNA. RNA was isolated using the Direct-zol 96-well RNA kit (Zymo cat #R2054). Subsequently purity and quantity of RNA in the samples were measured using a Nanodrop (Thermo Fisher cat #ND-ONE-W). RNA samples were normalized to 2 μg and reverse transcribed to cDNA using the Multiscribe High-Capacity Reverse Transcription kit (Thermo Fisher cat #4368814) following manufacturer's instructions. Quantitative real time PCR was carried out in triplicate using SYBR Select Master Mix (Thermo Fisher cat #4472903) following manufacturer's instructions with primers designed against HMOX1 and ActB from IDT. HMOX1 expression levels were normalized to ActB for each sample then fold change was determined against the vehicle control, DMSO.

recombinant GPX4 protein = molecular target: T1, recombinant GPX4 protein (Homo sapiens, UniProt P36969); assay: Intact protein mass spectrometry binding to recombinant GPX4; settings: for binding to recombinant GPX4 in vitro / number of binding events / sites on GPX4 (mass shifts): intact protein mass spectrometry, 2 hours incubation
T1 construct: purchased Cayman Chemical SO960203
T1 sequence (P36969 1-197): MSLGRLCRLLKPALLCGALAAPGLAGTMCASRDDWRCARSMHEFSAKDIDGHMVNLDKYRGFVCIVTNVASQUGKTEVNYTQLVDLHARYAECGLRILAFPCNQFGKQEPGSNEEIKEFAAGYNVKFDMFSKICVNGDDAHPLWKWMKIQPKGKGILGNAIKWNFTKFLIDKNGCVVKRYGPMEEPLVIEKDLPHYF
Description: To determine whether the five ferroptosis-inducing compounds identified in FIG. 3 and FIG. 4 could function through direct binding and inhibition of GPX4, we tested binding of each compound to recombinant GPX4 protein in vitro by intact protein mass spectrometry. Intact mass analysis is the assessment of a protein's total molecular weight by mass spectrometry without prior digestion or fragmentation of the molecule of interest. Covalent binding of a potential inhibitor to GPX4 can be detected by a shift in the mass of the intact protein. For the intact protein analysis, we used ML162, a well-characterized GPX4 inhibitor (available from Sigma Aldrich), as a positive control. […] Briefly, compounds were incubated with recombinant GPX4 protein in vitro for 2 hours before quenching with trifluoroacetic acid (TFA) and analysis by mass spectroscopy.
To determine whether the ferroptosis-inducing compounds 6666 and 8147 could function through direct binding and inhibition of GPX4, we tested binding of each compound to recombinant GPX4 protein in vitro by intact protein mass spectrometry. Compound 8216 was used as a positive control (see FIG. 6). Briefly, 15 μL of GPX4 protein (Cayman Chemical cat #SO960203]) was incubated with 100 µM of each compound ([…]) and diluted with 25.5 μl of PBS. The incubation was performed at room temperature for 2 hours and then the reaction was quenched with 3 μL of trifluoroacetic acid. Samples were subjected to UPLC coupled to Synapt G2 mass spectrometer to evaluate if binding of the test compound to GPX4 occurs. Binding is evident by a mass shift equivalent to the mass size of the compound minus a chlorine atom plus the mass size of the GPX4 protein, as described by the manufacturer.

[2] = tested on: 786-O Renal Clear Cell Carcinoma cells; assay: Bodipy-C11 lipid peroxidation staining in 786-O cells; type: cell-based; settings: for lipid peroxidation (Bodipy-C11 staining): 8216 6.25 μM 2 h, 1816 25 μM 1 h, 3362 12.5 μM 2 h, 0973 50 μM 2 h, 1962 50 μM 2 h
Procedure: To validate that the five ferroptosis-inducing compounds identified in FIG. 3 do cause lipid peroxidation, we used Bodipy-C11 staining in 786-O Renal Clear Cell Carcinoma cells to visualize using microscopy the presence (or absence) of oxidized lipids. Biodipy-C11 is a dye that traffics to lipid membranes and harbors a fluorophore that emits at different wavelengths depending on its oxidation status. Briefly, 786-O Renal Clear Cell Carcinoma cells were plated 24 hours prior to treatment with each of the five ferroptosis-inducing compounds (8216, 1816, 3362, 1962, and 0973) for one or two hours. DMSO was used as a control treatment. Following the treatment period, Hoechst stain (10 μM; a nuclear counterstain) and Bodipy-C11 (200 μM) were added to the cells for 30 minutes and then the cells were imaged using the Opera Phenix high content screening microscope.
FIG. 4B is a panel of plots 410 showing fluorescence images of Biodipy-C11 staining of cells treated with compound 8216 and the controls RSL3 and sodium arsenite. Briefly, 786-O Renal Clear Cell Carcinoma cells were plated 24 hours prior to treatment with compound 8216 and the controls RSL3 and sodium arsenite for 1 hour with and without 1.5 μM of ferrostatin-1. Bodipy C-11 undergoes a shift in emission when lipids become oxidized, non-oxidized lipids are represented in orange and oxidized lipids are green; Hoescht was included as nuclear stain to represent cell bodies.

For `O=C(CCl)N1c2ccccc2OC[C@@H]1c1ccccc1` [Compound 1962], the “HMOX1 induction (RT-qPCR)” value [1] was “did not lead to dose responsive induction of HMOX1”, the “binding to recombinant GPX4 in vitro” value (recombinant GPX4 protein) was “capable of binding GPX4” and the “number of binding events / sites on GPX4 (mass shifts)” value (recombinant GPX4 protein) was “can bind GPX4 either 2, 3, or 4 times”. The “lipid peroxidation (Bodipy-C11 staining)” value [2] was “some degree of lipid peroxidation was observed”.
`CCOc1ccc(C[C@@H]2c3cc(OCC)c(OCC)cc3CCN2C(=O)CCl)cc1OCC` [Compound 3362] was tested, and the “HMOX1 induction (RT-qPCR)” value [1] was “results in induction of HMOX1”, the “number of binding events / sites on GPX4 (mass shifts)” value (recombinant GPX4 protein) was “bind either 1, 2, or 3 times” and the “lipid peroxidation (Bodipy-C11 staining)” value [2] was “some degree of lipid peroxidation was observed”.
`CCCCCN(C(=O)CCl)c1c(N)n(CCCC)c(=O)[nH]c1=O` [Compound 1816] was tested, and the “HMOX1 induction (RT-qPCR)” value [1] was “did not induce HMOX1”, the “binding to recombinant GPX4 in vitro” value (recombinant GPX4 protein) was “capable of binding GPX4” and the “number of binding events / sites on GPX4 (mass shifts)” value (recombinant GPX4 protein) was “display a single mass shift”. The “lipid peroxidation (Bodipy-C11 staining)” value [2] was “some degree of lipid peroxidation was observed”.
`O=C(CCl)N(Cc1ccc(F)cc1)C1CCCCC1` [Compound 8216] was tested, and the “HMOX1 upregulation and rescue by ferrostatin-1 (RT-qPCR)” value ([1]; 5 μM, 4 hours, with and without ferrostatin-1) was “upregulation of HMOX1 which was rescued by the addition of ferrostatin-1, to varying degrees”, the “HMOX1 induction (RT-qPCR)” value [1] was “remarkably similar dose-dependent HMOX1 induction” and the “mass shift of GPX4 (binding)” value (recombinant GPX4 protein; 100 μM compound, room temperature, 2 hours, UPLC-Synapt G2) was “demonstrate a mass shift”. For the same compound, the “binding to recombinant GPX4 in vitro” value (recombinant GPX4 protein) was “capable of binding GPX4”, the “number of binding events / sites on GPX4 (mass shifts)” value (recombinant GPX4 protein) was “bind either 1, 2, or 3 times” and the “Bodipy C-11 emission shift (lipid oxidation)” value ([2]; 1 hour, with and without 1.5 μM ferrostatin-1) was “shift in emission color from orange to green”. For the same compound, the “lipid peroxidation (Bodipy-C11 staining)” value [2] was “some degree of lipid peroxidation was observed”.

Reference: patent publication US20240315994A1, “SMALL MOLECULE MODULATORS OF FERROPTOSIS” (ARPEGGIO BIOSCIENCES, INC., priority 2021, published 2024)
